Measurements from patent US20180148418A1, “AMIDO-SUBSTITUTED CYCLOHEXANE DERIVATIVES” (Bayer Pharma Aktiengesellschaft, priority 2015, published 2018).

Tests used:
[1] = tested on: wildtype Wnt signaling cascade; assay: HEK293 TOP assay (Super TopFlash luciferase reporter, Wnt-3a stimulated); assay type: cell-based; settings: Homo sapiens, HEK293, 16 h, HEK293 TOP reporter cells, Wnt3a at EC50, 16 hours
Method in brief: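 Compound series (50 μM down to 15 nM, 3.16-fold) diluted from DMSO 50-fold into CAFTY buffer, pH 7.4, 2 mM Ca^2+, 0.01% BSA, applied to Wnt-3a-stimulated HEK293 TopFlash and FOP reporter lines in parallel. Cells seeded 10000/well 24 h before; luciferase signal measured.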

TNKS2 = molecular target: T1, TNKS2 (Homo sapiens, UniProt Q9H2K2); assay: TNKS2 Assay B (auto-parsylation, [3H]-NAD+ SPA); assay type: biochemical; settings: 6 nM TNKS2, auto-parsylation, over night at room temperature
T1 construct: purchased BPS Bioscience, San Diego, USA 80572 (TNKS2 Histone Ribosylation Assay Kit)
T1 sequence (Q9H2K2 1-1166): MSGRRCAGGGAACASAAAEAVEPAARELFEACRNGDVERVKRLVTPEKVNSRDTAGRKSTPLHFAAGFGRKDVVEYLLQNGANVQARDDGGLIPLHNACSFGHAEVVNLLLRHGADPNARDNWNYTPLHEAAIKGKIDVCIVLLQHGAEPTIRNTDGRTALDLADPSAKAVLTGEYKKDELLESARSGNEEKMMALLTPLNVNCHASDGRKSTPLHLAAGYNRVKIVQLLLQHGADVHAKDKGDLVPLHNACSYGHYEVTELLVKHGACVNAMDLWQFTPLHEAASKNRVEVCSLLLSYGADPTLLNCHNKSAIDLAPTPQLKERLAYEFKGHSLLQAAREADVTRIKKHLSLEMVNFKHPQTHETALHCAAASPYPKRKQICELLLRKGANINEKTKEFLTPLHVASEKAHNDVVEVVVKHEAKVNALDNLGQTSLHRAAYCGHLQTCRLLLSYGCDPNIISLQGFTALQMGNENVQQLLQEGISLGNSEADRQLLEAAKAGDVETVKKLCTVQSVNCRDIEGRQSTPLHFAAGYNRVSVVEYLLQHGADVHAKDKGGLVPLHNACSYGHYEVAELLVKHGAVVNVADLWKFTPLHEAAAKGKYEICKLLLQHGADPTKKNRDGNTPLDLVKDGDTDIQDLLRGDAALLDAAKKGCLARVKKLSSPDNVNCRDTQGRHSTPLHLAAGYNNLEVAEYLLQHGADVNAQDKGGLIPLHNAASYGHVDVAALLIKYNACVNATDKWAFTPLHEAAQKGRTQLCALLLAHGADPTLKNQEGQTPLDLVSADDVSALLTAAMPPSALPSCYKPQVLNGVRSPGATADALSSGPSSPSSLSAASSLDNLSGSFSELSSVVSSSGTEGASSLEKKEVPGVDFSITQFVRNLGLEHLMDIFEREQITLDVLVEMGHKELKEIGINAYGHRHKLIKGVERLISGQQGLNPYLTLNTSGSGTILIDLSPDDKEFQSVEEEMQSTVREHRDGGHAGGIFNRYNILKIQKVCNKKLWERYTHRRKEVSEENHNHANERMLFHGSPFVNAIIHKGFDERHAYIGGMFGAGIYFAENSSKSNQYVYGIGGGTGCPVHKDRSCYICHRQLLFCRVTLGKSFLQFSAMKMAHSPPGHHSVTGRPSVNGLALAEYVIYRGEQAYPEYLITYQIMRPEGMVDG

| SMILES | IC50 [1] [nM] | IC50 (TNKS2) [nM] |
| --- | --- | --- |
| O=C(NCC1CCCO1)c1nc[nH]c1C(=O)N[C@H]1CC[C@H](C(=O)Nc2cc(F)ccc2Cl)CC1 (stereo partly drawn) [Example 129, N^5-{trans-4-[(2-chloro-5-fluorophenyl)carbamoyl]cyclohexyl}-N^4-(tetrahydrofuran-2-ylmethyl)-1H-imidazole-4,5-dicarboxamide] | 410 | 34 |
| O=C(N[C@H]1CC[C@H](C(=O)Nc2cc(F)c(F)cc2Cl)CC1)c1cnn2cccnc12 [Example 130, N-{trans-4-[(2-chloro-4,5-difluorophenyl)carbamoyl]cyclohexyl}pyrazolo[1,5-a]pyrimidine-3-carboxamide] | 22 | 18 |
| O=C(N[C@H]1CC[C@H](C(=O)Nc2cc(F)c(F)cc2Cl)CC1)c1cnc2cccnn12 [Example 132, N-{trans-4-[(2-chloro-4,5-difluorophenyl)carbamoyl]cyclohexyl}imidazo[1,2-b]pyridazine-3-carboxamide] | 51 | 29 |
| O=C(N[C@H]1CC[C@H](C(=O)Nc2c(F)cc(F)cc2Cl)CC1)c1cnc2cccnn12 [Example 133, N-{trans-4-[(2-chloro-4,6-difluorophenyl)carbamoyl]cyclohexyl}imidazo[1,2-b]pyridazine-3-carboxamide] | 290 | 55 |
| Cc1cc(C)n2ncc(C(=O)N[C@H]3CC[C@H](C(=O)Nc4c(F)cc(F)cc4Cl)CC3)c2n1 [Example 135, N-{trans-4-[(2-chloro-4,6-difluorophenyl)carbamoyl]cyclohexyl}-5,7-dimethylpyrazolo[1,5-a]pyrimidine-3-carboxamide] | 38 | 29 |
| O=C(N[C@H]1CC[C@@]2(CCN(c3ccc(F)cc3Cl)C2=O)CC1)c1cnn2cccnc12 [Example 136, N-[(trans)-2-(2-chloro-4-fluorophenyl)-1-oxo-2-azaspiro[4.5]dec-8-yl]pyrazolo[1,5-a]pyrimidine-3-carboxamide] | 1.2 | 4.7 |
| O=C(N[C@H]1CC[C@@]2(CCN(c3ccc(F)cc3Cl)C2=O)CC1)c1cnc2cccnn12 [Example 138, N-[(trans)-2-(2-chloro-4-fluorophenyl)-1-oxo-2-azaspiro[4.5]dec-8-yl]imidazo[1,2-b]pyridazine-3-carboxamide] | 6.1 | 7 |
| CCNC(=O)c1[nH]cnc1C(=O)N[C@H]1CC[C@@]2(CCN(c3ccc(F)cc3Cl)C2=O)CC1 [Example 141, N^4-[(trans)-2-(2-chloro-4-fluorophenyl)-1-oxo-2-azaspiro[4.5]dec-8-yl]-N^5-ethyl-1H-imidazole-4,5-dicarboxamide] | 1.8 | 6.5 |
| CNC(=O)c1nc[nH]c1C(=O)N[C@H]1CC[C@H](C(=O)Nc2cc(C(F)(F)F)ccc2Cl)CC1 [Example 142, N^5-(trans-4-{[2-chloro-5-(trifluoromethyl)phenyl]carbamoyl}cyclohexyl)-N^4-methyl-1H-imidazole-4,5-dicarboxamide] | 68 | 80 |
| COCC(C)NC(=O)c1nc[nH]c1C(=O)N[C@H]1CC[C@H](C(=O)Nc2cc(C(F)(F)F)ccc2Cl)CC1 (stereo partly drawn) [Example 143, N^5-(trans-4-{[2-chloro-5-(trifluoromethyl)phenyl]carbamoyl}cyclohexyl)-N^4-(1-methoxypropan-2-yl)-1H-imidazole-4,5-dicarboxamide] | 220 | 150 |
| CC(C)(O)CNC(=O)c1nc[nH]c1C(=O)N[C@H]1CC[C@H](C(=O)Nc2cc(C(F)(F)F)ccc2Cl)CC1 [Example 145, N^5-(trans-4-{[2-chloro-5-(trifluoromethyl)phenyl]carbamoyl}cyclohexyl)-N^4-(2-hydroxy-2-methylpropyl)-1H-imidazole-4,5-dicarboxamide] | 150 | 280 |
| O=C(NCC1CCCO1)c1nc[nH]c1C(=O)N[C@H]1CC[C@H](C(=O)Nc2cc(C(F)(F)F)ccc2Cl)CC1 (stereo partly drawn) [Example 146, N^5-(trans-4-{[2-chloro-5-(trifluoromethyl)phenyl]carbamoyl}cyclohexyl)-N^4-(tetrahydrofuran-2-ylmethyl)-1H-imidazole-4,5-dicarboxamide] | 720 | 100 |
| CNC(=O)c1nc[nH]c1C(=O)N[C@H]1CC[C@H](C(=O)Nc2ncncc2Cl)CC1 [Example 147, N^5-{trans-4-[(5-chloropyrimidin-4-yl)carbamoyl]cyclohexyl}-N^4-methyl-1H-imidazole-4,5-dicarboxamide] | 54 | 77 |
| O=C(N[C@H]1CC[C@H](C(=O)Nc2cnc(C(F)(F)F)cc2Cl)CC1)c1cnn2cccnc12 [Example 149, N-(trans-4-{[4-chloro-6-(trifluoromethyl)pyridin-3-yl]carbamoyl}cyclohexyl)pyrazolo[1,5-a]pyrimidine-3-carboxamide] | 190 | 170 |
| Cc1cc(NC(=O)[C@H]2CC[C@H](NC(=O)c3cnn4cccnc34)CC2)c(Cl)cc1F [Example 150, N-{trans-4-[(2-chloro-4-fluoro-5-methylphenyl)carbamoyl]cyclohexyl}pyrazolo[1,5-a]pyrimidine-3-carboxamide] | 80 | 35 |
| CCN(c1ccc(F)cc1Cl)C(=O)[C@H]1CC[C@H](NC(=O)c2cnn3cccnc23)CC1 [Example 154, N-{trans-4-[(2-chloro-4-fluorophenyl)(ethyl)carbamoyl]cyclohexyl}pyrazolo[1,5-a]pyrimidine-3-carboxamide] | 130 | 57 |

Further lines, results first:

| IC50 [1] [nM] | IC50 (TNKS2) [nM] | SMILES |
| --- | --- | --- |
| 140 | 33 | Cc1cc(C)n2ncc(C(=O)N[C@H]3CC[C@H](C(=O)Nc4cc(F)c(F)cc4Cl)CC3)c2n1 [Example 134, N-{trans-4-[(2-chloro-4,5-difluorophenyl)carbamoyl]cyclohexyl}-5,7-dimethylpyrazolo[1,5-a]pyrimidine-3-carboxamide] |
| 5000 | 3.3 | Cc1cnc2c(C(=O)N[C@H]3CC[C@@]4(CCN(c5ccc(F)cc5Cl)C4=O)CC3)cnn2c1 [Example 137, N-[(trans)-2-(2-chloro-4-fluorophenyl)-1-oxo-2-azaspiro[4.5]dec-8-yl]-6-methylpyrazolo[1,5-a]pyrimidine-3-carboxamide] |
| 1.1 | 4.2 | Cc1cc(C)n2ncc(C(=O)N[C@H]3CC[C@@]4(CCN(c5ccc(F)cc5Cl)C4=O)CC3)c2n1 [Example 139, N-[(trans)-2-(2-chloro-4-fluorophenyl)-1-oxo-2-azaspiro[4.5]dec-8-yl]-5,7-dimethylpyrazolo[1,5-a]pyrimidine-3-carboxamide] |
| 0.86 | 6.9 | CNC(=O)c1[nH]cnc1C(=O)N[C@H]1CC[C@@]2(CCN(c3ccc(F)cc3Cl)C2=O)CC1 [Example 140, N^4-[(trans)-2-(2-chloro-4-fluorophenyl)-1-oxo-2-azaspiro[4.5]dec-8-yl]-N^5-methyl-1H-imidazole-4,5-dicarboxamide] |
| 250 | 230 | COC(C)(C)CNC(=O)c1nc[nH]c1C(=O)N[C@H]1CC[C@H](C(=O)Nc2cc(C(F)(F)F)ccc2Cl)CC1 [Example 144, N^5-(trans-4-{[2-chloro-5-(trifluoromethyl)phenyl]carbamoyl}cyclohexyl)-N^4-(2-methoxy-2-methylpropyl)-1H-imidazole-4,5-dicarboxamide] |
| 140 | 1300 | O=C(N[C@H]1CC[C@]2(CCN(c3ccc(F)cc3Cl)C2=O)CC1)c1cnn2cccnc12 [Example 148, N-[(cis)-2-(2-chloro-4-fluorophenyl)-1-oxo-2-azaspiro[4.5]dec-8-yl]pyrazolo[1,5-a]pyrimidine-3-carboxamide] |
| 110 | 150 | Cc1cc(F)cc(Cl)c1NC(=O)[C@H]1CC[C@H](NC(=O)c2cnn3cccnc23)CC1 [Example 151, N-{trans-4-[(2-chloro-4-fluoro-6-methylphenyl)carbamoyl]cyclohexyl}pyrazolo[1,5-a]pyrimidine-3-carboxamide] |
